From patent US11124494B2, “Aryl heterocyclic piperidinone formyl peptide 2 receptor and formyl peptide 1 receptor agonists” (Bristol-Myers Squibb Company, priority 2017, dated 2021)

Molecular target: human FPR2 receptors (Homo sapiens (Human), UniProt P25090)
Assay: FPR2 cyclic adenosine monophosphate (cAMP) assay
Format: cell-based
Conditions: hFPR2 Assay, CHO cells overexpressing human FPR2; potency bins; read-out: hFPR2 agonist activity EC50 values
Protocol: FPR2 and FPR1 Cyclic Adenosine Monophosphate (cAMP) Assays. A mixture of forskolin (5 μM final for FPR2 or 10 μM final for FPR1) and IBMX (200 μM final) were added to 384-well Proxiplates (Perkin-Elmer) pre-dotted with test compounds in DMSO (1% final) at final concentrations in the range of 1.7 nM to 100 μM. Chinese Hamster Ovary cells (CHO) overexpressing human FPR1 or human FPR2 receptors were cultured in F-12 (Ham's) medium supplemented with 10% qualified FBS, 250 μg/ml zeocin and 300 μg/ml hygromycin (Life Technologies). Reactions were initiated by adding 2,000 human FPR2 cells per well or 4,000 human FPR1 cells per well in Dulbecco's PBS (with calcium and magnesium) (Life Technologies) supplemented with 0.1% BSA (Perkin-Elmer). The reaction mixtures were incubated for 30 min at room temperature. The level of intracellular cAMP was determined using the HTRF HiRange cAMP assay reagent kit (Cisbio) according to manufacturer's instruction. Solutions of cryptate conjugated anti-cAMP and d2 flurorophore-labelled cAMP were made in a supplied lysis buffer separately. Upon completion of the reaction, the cells were lysed with equal volume of the d2-cAMP solution and anti-cAMP solution. After a 1-h room temperature incubation, time-resolved fluorescence intensity was measured using the Envision (Perkin-Elmer) at 400 nm excitation and dual emission at 590 nm and 665 nm. A calibration curve was constructed with an external cAMP standard at concentrations ranging from 1 μM to 0.1 pM by plotting the fluorescent intensity ratio from 665 nm emission to the intensity from the 590 nm emission against cAMP concentrations. The potency and activity of a compound to inhibit cAMP production was then determined by fitting to a 4-parametric logistic equation from a plot of cAMP level versus compound concentrations.

Chain of human FPR2 receptors (P25090 whole entry): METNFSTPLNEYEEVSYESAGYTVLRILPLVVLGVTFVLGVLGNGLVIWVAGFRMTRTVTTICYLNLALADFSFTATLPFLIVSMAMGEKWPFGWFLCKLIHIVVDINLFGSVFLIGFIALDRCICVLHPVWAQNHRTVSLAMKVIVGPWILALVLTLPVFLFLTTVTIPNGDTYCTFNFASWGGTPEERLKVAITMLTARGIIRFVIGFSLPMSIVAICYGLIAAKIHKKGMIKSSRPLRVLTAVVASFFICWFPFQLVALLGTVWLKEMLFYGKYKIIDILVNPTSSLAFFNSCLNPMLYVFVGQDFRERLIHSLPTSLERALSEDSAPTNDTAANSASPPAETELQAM

| SMILES | EC50 |
| --- | --- |
| CS(=O)(=O)NCC1(c2ccc(N3CCC[C@@H](NC(=O)Nc4ccc(C(F)(F)F)nc4)C3=O)cc2)CCC1 [Example 1, (R)—N-((1-(4-(2-Oxo-3-(3-(6-(trifluoromethyl)pyridin-3-yl)ureido)piperidin-1-yl)phenyl)cyclobutyl)methyl)methanesulfonamide] | ≤ 0.01 µM |
| CS(=O)(=O)NCC1(c2ccc(N3CCC[C@@H](NC(=O)Nc4ccc(C(F)(F)F)nc4)C3=O)cc2F)CC1 [Example 2] | ≤ 0.01 µM |
| O=C(Nc1ccc(C(F)(F)F)nc1)N[C@@H]1CCCN(c2ccc(C3(CO)CC3)cc2)C1=O [Example 3] | 0.1 to 1.25 µM |
| CS(=O)(=O)NCC1(c2ccc(N3CCC[C@@H](NC(=O)Nc4ccc(C(F)(F)F)cn4)C3=O)c(F)c2)CC1 [Example 4] | 0.01 to 0.1 µM |
| COc1cnc(NC(=O)N[C@@H]2CCCN(c3ccc(C4(CNS(C)(=O)=O)CC4)c(F)c3)C2=O)cn1 [Example 5] | ≤ 0.01 µM |
| COc1cnc(NC(=O)N[C@@H]2CCCN(c3ccc(C4(CNS(C)(=O)=O)CCC4)cc3)C2=O)cn1 [Example 7] | ≤ 0.01 µM |
| Cc1cnc(NC(=O)N[C@@H]2CCCN(c3ccc(C4(CNS(C)(=O)=O)CCC4)cc3)C2=O)cn1 [Example 8] | ≤ 0.01 µM |
| COc1cnc(NC(=O)N[C@@H]2CCCN(c3ccc(C4(CNS(C)(=O)=O)CC4)cc3)C2=O)cn1 [Example 9] | ≤ 0.01 µM |
| COc1cnc(NC(=O)N[C@H]2CCCN(c3ccc(C4(CNS(C)(=O)=O)CCC4)cc3)C2=O)cn1 [Example 10] | 0.01 to 0.1 µM |
| COc1cnc(NC(=O)N[C@H]2CCCN(c3ccc(C4(CNS(C)(=O)=O)CC4)cc3)C2=O)cn1 [Example 11] | 0.1 to 1.25 µM |
| CS(=O)(=O)NCC1(c2ccc(N3CCC[C@H](NC(=O)Nc4cnc(Cl)cn4)C3=O)cc2)CCC1 [Example 12] | ≤ 0.01 µM |
| CS(=O)(=O)NCC1(c2ccc(N3CCC[C@@H](NC(=O)Nc4ncc(Cl)cc4Cl)C3=O)cc2)CCC1 [Example 13] | 0.01 to 0.1 µM |
| CS(=O)(=O)NCC1(c2ccc(N3CCC[C@@H](NC(=O)Nc4ncc(C(F)(F)F)cc4F)C3=O)cc2)CCC1 [Example 14] | ≤ 0.01 µM |
| CS(=O)(=O)NCC1(c2ccc(N3CCC[C@H](NC(=O)Nc4ccc(C(F)(F)F)cc4)C3=O)cc2F)CC1 [Example 15] | 0.01 to 0.1 µM |
| CS(=O)(=O)NCC1(c2ccc(N3CCC[C@@H](NC(=O)Nc4ncc(C(F)(F)F)cn4)C3=O)cc2)CC1 [Example 16] | 0.01 to 0.1 µM |
| CS(=O)(=O)NCC1(c2ccc(N3CCC[C@@H](NC(=O)Nc4ncc(C(F)(F)F)cc4F)C3=O)cc2F)CC1 [Example 17] | 0.01 to 0.1 µM |
| CS(=O)(=O)NCC1(c2ccc(N3CCC[C@@H](NC(=O)Nc4cnc(Cl)cn4)C3=O)cc2F)CC1 [Example 19] | ≤ 0.01 µM |
| CS(=O)(=O)NCC1(c2ccc(N3CCC[C@@H](NC(=O)Nc4ncc(Cl)cc4F)C3=O)cc2F)CC1 [Example 20] | ≤ 0.01 µM |
| CS(=O)(=O)NCC1(c2ccc(N3CCC[C@@H](NC(=O)Nc4ccc(OC(F)F)nc4)C3=O)cc2F)CC1 [Example 21] | 0.01 to 0.1 µM |
| CS(=O)(=O)NCC1(c2ccc(N3CCC[C@@H](NC(=O)Nc4ncc(Cl)cc4Cl)C3=O)cc2F)CC1 [Example 22] | 0.1 to 1.25 µM |
| CS(=O)(=O)NCC1(c2ccc(N3CCC[C@@H](NC(=O)Nc4ccc(Cl)cn4)C3=O)cc2)CC1 [Example 23] | ≤ 0.01 µM |
| COc1ccc(NC(=O)N[C@@H]2CCCN(c3ccc(C4(CNS(C)(=O)=O)CC4)cc3)C2=O)nc1 [Example 24] | ≤ 0.01 µM |
| Cc1cnc(NC(=O)N[C@@H]2CCCN(c3ccc(C4(CNS(C)(=O)=O)CC4)cc3)C2=O)cn1 [Example 25] | ≤ 0.01 µM |
| CS(=O)(=O)NCC1(c2ccc(N3CCC[C@@H](NC(=O)Nc4ccc(C(F)(F)F)cn4)C3=O)cc2F)CC1 [Example 26] | 0.01 to 0.1 µM |
| CS(=O)(=O)NCC1(c2ccc(N3CCC[C@@H](NC(=O)Nc4ccc(C(F)(F)F)cn4)C3=O)cc2)CCC1 [Example 28] | ≤ 0.01 µM |
| CS(=O)(=O)NCC1(c2ccc(N3CCC[C@@H](NC(=O)Nc4ccc(C(F)(F)F)cn4)C3=O)cc2)CCCC1 [Example 29] | 0.01 to 0.1 µM |

| SMILES | EC50 |
| --- | --- |
| CS(=O)(=O)NCC1(c2ccc(N3CCC[C@H](NC(=O)Nc4ccc(C(F)(F)F)nc4)C3=O)cc2)CCC1 [Example 30] | 0.1 to 1.25 µM |
| CS(=O)(=O)NCC1(c2ccc(N3CCC[C@@H](NC(=O)Nc4ccc(C(F)(F)F)nc4)C3=O)cc2)CCCC1 [Example 31] | ≤ 0.01 µM |
| CS(=O)(=O)NCC1(c2ccc(N3CCC[C@H](NC(=O)Nc4ccc(C(F)(F)F)nc4)C3=O)cc2)CCCC1 [Example 32] | 0.1 to 1.25 µM |
| CS(=O)(=O)NCC1(c2ccc(N3CCC[C@@H](NC(=O)Nc4ccc(C(F)(F)F)nc4)C3=O)cc2)CC1 [Example 33] | ≤ 0.01 µM |
| COc1cnc(NC(=O)N[C@@H]2CCCN(c3ccc(C4(CNS(C)(=O)=O)CC4)cc3)C2=O)c(F)c1 [Example 34] | 0.01 to 0.1 µM |
| CS(=O)(=O)NCC1(c2ccc(N3CCC[C@@H](NC(=O)Nc4ncc(Cl)cc4Cl)C3=O)cc2)CC1 [Example 35] | 0.1 to 1.25 µM |
| CS(=O)(=O)NCC1(c2ccc(N3CCC[C@@H](NC(=O)Nc4ccc(OC(F)F)nc4)C3=O)cc2)CC1 [Example 36] | ≤ 0.01 µM |
| CS(=O)(=O)NCC1(c2ccc(N3CCC[C@@H](NC(=O)Nc4cnc(C#N)cn4)C3=O)cc2)CC1 [Example 37] | 0.01 to 0.1 µM |
| CS(=O)(=O)NCC1(c2ccc(N3CCC[C@@H](NC(=O)Nc4ccc(OC(F)F)nc4)C3=O)cc2)CC1 [Example 38] | 0.1 to 1.25 µM |
| CS(=O)(=O)NCC1(c2ccc(N3CCC[C@@H](NC(=O)Nc4ncc(Cl)cc4F)C3=O)cc2)CC1 [Example 39] | ≤ 0.01 µM |
| CS(=O)(=O)NCC1(c2ccc(N3CCC[C@@H](NC(=O)Nc4ncc(C(F)(F)F)cc4F)C3=O)cc2)CC1 [Example 40] | 0.01 to 0.1 µM |
| CS(=O)(=O)NCC1(c2ccc(N3CCC[C@H](NC(=O)Nc4ccc(C(F)(F)F)cc4)C3=O)cc2)CC1 [Example 43] | 0.01 to 0.1 µM |
| CS(=O)(=O)NCC1(c2ccc(N3CCC[C@H](NC(=O)Nc4ccc(C(F)(F)F)nc4)C3=O)cc2)CC1 [Example 45] | 0.1 to 1.25 µM |
| CS(=O)(=O)NCC1(c2ccc(N3CCC[C@@H](NC(=O)Nc4ccc(C(F)(F)F)cn4)C3=O)cc2)CC1 [Example 46] | ≤ 0.01 µM |
| CS(=O)(=O)NCC1(c2ccc(N3CCC[C@H](NC(=O)Nc4ccc(C(F)(F)F)cn4)C3=O)cc2)CC1 [Example 47] | 0.1 to 1.25 µM |
| N#CC1(c2ccc(N3CCC[C@H](NC(=O)Nc4ccc(C(F)(F)F)cc4)C3=O)cc2)CC1 [Example 48] | 0.1 to 1.25 µM |
| N#CC1(c2ccc(N3CCC[C@@H](NC(=O)Nc4ccc(C(F)(F)F)cc4)C3=O)cc2)CC1 [Example 49] | ≤ 0.01 µM |
| O=C(Nc1ccc(Cl)cc1)N[C@@H]1CCCN(c2ccc(C3CCOCC3)cc2)C1=O [Example 50] | ≤ 0.01 µM |
| O=C(Nc1ncc(Cl)cc1F)N[C@@H]1CCCN(c2ccc(C3(CN4CCOCC4)CC3)cc2)C1=O [Example 54, (R)-1-(5-chloro-3-fluoropyridin-2-yl)-3-(1-(4-(1-(morpholinomethyl)cyclopropyl)phenyl)-2-oxopiperidin-3-yl)urea] | 0.1 to 1.25 µM |
| O=C(Nc1ccc(C(F)(F)F)nc1)N[C@@H]1CCCN(c2ccc(C3(CN4CCCC4)CCC3)cc2)C1=O [Example 56, (R)-1-(2-oxo-1-(4-(1-(pyrrolidin-1-ylmethyl)cyclobutyl)phenyl)piperidin-3-yl)-3-(6-(trifluoromethyl)pyridin-3-yl)urea] | 0.1 to 1.25 µM |
| O=C(Nc1ccc(C(F)(F)F)cn1)N[C@@H]1CCCN(c2ccc(C3(CN4CCCC4)CCC3)cc2)C1=O [Example 59, (R)-1-(2-oxo-1-(4-(1-(pyrrolidin-1-ylmethyl)cyclobutyl)phenyl)piperidin-3-yl)-3-(5-(trifluoromethyl)pyridin-2-yl)urea] | 0.1 to 1.25 µM |
| O=C(Nc1ccc(C(F)(F)F)cn1)N[C@@H]1CCCN(c2ccc(C3(CN4CCCC4)CCCC3)cc2)C1=O [Example 60, (R)-1-(2-oxo-1-(4-(1-(pyrrolidin-1-ylmethyl)cyclopentyl)phenyl)piperidin-3-yl)-3-(5-(trifluoromethyl)pyridin-2-yl)urea] | 0.1 to 1.25 µM |
| O=C(Nc1ccc(C(F)(F)F)nc1)N[C@@H]1CCCN(c2ccc(C3(CN4CCOCC4)CCCC3)cc2)C1=O [Example 61, (R)-1-(1-(4-(1-(morpholinomethyl)cyclopentyl)phenyl)-2-oxopiperidin-3-yl)-3-(6-(trifluoromethyl)pyridin-3-yl)urea] | 0.1 to 1.25 µM |
| O=C(Nc1ccc(C(F)(F)F)cn1)N[C@@H]1CCCN(c2ccc(C3(CN4CCOCC4)CCC3)cc2)C1=O [Example 63, (R)-1-(1-(4-(1-(morpholinomethyl)cyclobutyl)phenyl)-2-oxopiperidin-3-yl)-3-(5-(trifluoromethyl)pyridin-2-yl)urea] | 0.01 to 0.1 µM |
| O=C(Nc1ccc(C(F)(F)F)nc1)N[C@@H]1CCCN(c2ccc(C3(CN4CCOCC4)CC3)cc2)C1=O [Example 64, (R)-1-(1-(4-(1-(morpholinomethyl)cyclopropyl)phenyl)-2-oxopiperidin-3-yl)-3-(6-(trifluoromethyl)pyridin-3-yl)urea] | 0.01 to 0.1 µM |
